Reference: patent publication US20210246140A1, “MODULATORS OF METABOTROPIC GLUTAMATE RECEPTOR 2” (The General Hospital Corporation, priority 2020, published 2021)

Experiments:
[1] = Plasma stability in rat serum; assay type: in vitro ADME; settings: 37° C., diltiazem as positive control
Method: Compound stability in rat serum was examined using a published method. [See ref. 57] Rat serum (100 μL, Abeam, Inc, No. ab7488) and test compound or control compound (2.5 μL, 1 mM in DMSO) was added to the individual tube. The tube was vortexed and incubated at 37° C. During the incubation, aliquots of 50 μL samples were quenched with ice-cold acetonitrile at 0, 15, 30, 60, and 120 min time points, respectively. After mixing, the quenched samples were centrifuged, and the supernatant was withdrawn for analysis by HPLC (Agilent 1260 infinity II LC System, XTerra™ MS C18, 5μ, 2.1×250 mm, 20 mM ammonium formate (A)/acetonitrile (B), 0.25 mL/min, gradient of 5% to 100% B). The samples were assayed at least three times. Compound 1-OH was used as internal standard while diltiazem was used as a positive control. The percentage remaining was calculated by (peak area at the specific time point)/(peak area at 0 min)×100% (FIG. 7).
The in vitro plasma and liver microsomal stability of 1 and 2 were studied by incubating the test compounds in rat serum and rat liver microsomes as well as NADPH cofactor, respectively, using previously published methods [see refs. 57, 58]. […] The solution stability of 1 was evaluated with buffer solutions at pH 5.0, 7.4 and 9.4, respectively (FIGS. 10 and 20) [see refs. 61].

[2] = Plasma protein binding assay (equilibrium dialysis, RED device); assay type: in vitro ADME; settings: rat plasma
Method: Disposable RED device inserts (product 90006) were from Thermos Scientific (Waltham, Mass.). Each insert was made of two side-by-side chambers separated by a vertical cylinder of dialysis membrane (MWCO 8,000) validated for minimal non-specific binding. A stock solution of the test compound in DMSO was spiked into the rat plasma to reach a concentration of 10 μM. 400 μL of sample solution was placed into the sample chamber of the RED device, and 600 μL of phosphate-buffered saline (PBS) was added to the buffer chamber of the RED device. Samples were prepared in triplicates. The plate was covered with aluminum sealing cover and incubated at 37° C. on an orbital shaker at approximately 200 rpm for 5 h. After incubation, 300 μL of post-dialysis samples from the buffer and sample chambers were transferred to different microcentrifuge tubes. To the buffer sample was added 300 μL of plasma, and an equal volume of buffer was added to the collected plasma sample. 600 μL of cold acetonitrile was added to the samples, and the samples were vortexed and incubated for 30 min on ice and then were centrifuged at 14000 rpm for 10 min. Supernatant was transferred to vial for HPLC analysis (XTerra™ MS C18 5μ, 2.1×250 mm column; Gradient elution from 5% to 90% B in 30 min; 0.1 M ammonium formate in water (A) and acetonitrile (B); UV 254 nm; 100 μL of injection volume). The percentage of the test bound compound was calculated as % Free=(Concentration in buffer chamber/Concentration in plasma chamber)×100%; % Bound=100%−% Free (FIG. 6).
The experimental lipophilicity was measured by using liquid-liquid partition between n-octanol and water (“shake-flask method”) [see ref. 54]. […] The plasma protein binding comprises compounds' binding to albumin, α1-acid glycoprotein and lipoproteins once delivered to the bloodstream. This property was evaluated for compounds 1 and 2 by equilibrium dialysis [see ref. 56], where two chambers were separated by a dialysis membrane (MWCO 8 kD). The plasma protein bindings of 1 and 2 are 87.2% and 88.7%, respectively (see FIGS. 20 and 6). Therefore, the high plasma free fraction of compounds 1 and 2 (>10%) would allow enough free drug concentration in blood stream to reach the brain targets.

[3] = target: T1, mGluR2 (Homo sapiens, UniProt Q14416); settings: calcium flux, Gα15 or Gα16 forced coupling; read-out: previously reported mGluR2 EC50; cited from earlier work
T1 construct: expressed in transfected cells
T1 sequence (Q14416 19-872): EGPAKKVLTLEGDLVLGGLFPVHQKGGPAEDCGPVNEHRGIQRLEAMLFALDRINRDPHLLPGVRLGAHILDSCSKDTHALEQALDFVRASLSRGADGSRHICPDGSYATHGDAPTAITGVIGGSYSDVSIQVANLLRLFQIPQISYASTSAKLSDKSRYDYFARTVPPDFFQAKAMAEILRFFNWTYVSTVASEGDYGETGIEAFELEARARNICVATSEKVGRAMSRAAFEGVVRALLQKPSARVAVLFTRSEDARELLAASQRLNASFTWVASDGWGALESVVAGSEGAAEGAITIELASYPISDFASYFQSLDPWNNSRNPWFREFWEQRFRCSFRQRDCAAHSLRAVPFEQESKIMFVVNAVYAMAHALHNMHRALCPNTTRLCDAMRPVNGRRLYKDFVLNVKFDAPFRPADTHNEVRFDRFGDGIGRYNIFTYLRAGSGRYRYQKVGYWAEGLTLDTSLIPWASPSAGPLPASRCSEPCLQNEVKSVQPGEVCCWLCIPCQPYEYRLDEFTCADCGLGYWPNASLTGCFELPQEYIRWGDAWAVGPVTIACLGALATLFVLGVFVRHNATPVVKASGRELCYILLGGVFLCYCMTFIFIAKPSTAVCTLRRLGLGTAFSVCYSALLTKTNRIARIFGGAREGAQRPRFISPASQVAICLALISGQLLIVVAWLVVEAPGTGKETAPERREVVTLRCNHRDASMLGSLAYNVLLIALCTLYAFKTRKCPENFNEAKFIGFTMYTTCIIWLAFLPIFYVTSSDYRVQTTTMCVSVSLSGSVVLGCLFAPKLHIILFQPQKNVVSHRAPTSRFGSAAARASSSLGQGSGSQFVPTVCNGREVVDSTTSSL

stability in rat plasma [1]: much more stable than diltiazem
plasma protein binding ([2]; equilibrium dialysis, 10 μM): 87.2%
fraction unbound at 5 h, 10 μM ([2]; read-out: plasma free fraction): > 0.1
SMILES: COc1cc(C(F)(F)F)ccc1C1CCN(Cc2nc3ncccc3n2C)CC1 [Compound 1]
EC50 [3]: 13 nM
